Experimental data from patent US9840510B1, “Pyrazolo[1,5-a]pyrimidinyl carboxamide compounds and their use in the treatment of medical disorders” (Lysosomal Therapeutics Inc., priority 2016, dated 2017).
Converted amounts (≈) assume the structure as drawn.

Assay: Compound solubility in water
Type: physicochemical

SMILES | solubility | Compound Solubility in Water
Cc1cc(-c2cccnc2)nc2c(C(=O)N[C@H]3CC[C@H](OCC(C)C)CC3)cnn12 [III-39] | 4.4 µg/mL (≈ 10.8 µM) | –
Cc1cc(-c2cccnc2)nc2c(C(=O)NC(C)C(F)(F)F)cnn12 (stereo not drawn) [III-43] | 12.1 µg/mL (≈ 34.6 µM) | –
Cc1cc(NC2CC2)nc2c(C(=O)NC(C3CC3)C(F)(F)F)cnn12 (stereo not drawn) [III-44] | 3 µg/mL (≈ 8.49 µM) | –
COCc1cc(-c2ccc(F)cc2)nc2c(C(=O)N[C@@H](C)C3CC3)cnn12 [III-46] | 3.4 µg/mL (≈ 9.23 µM) | –
COCc1cc(-c2ccc(F)cc2)nc2c(C(=O)NC(C)(C)C3CC3)cnn12 [III-47] | 0.3 µg/mL (≈ 0.784 µM) | –
CCc1cc(-c2ccccn2)n2ncc(C(=O)NC(C)C3CC3)c2n1 (stereo not drawn) [III-48] | 19.8 µg/mL (≈ 59 µM) | –
CCc1cc(-c2ccccn2)nc2c(C(=O)NC(C)C3CC3)cnn12 (stereo not drawn) [III-49] | 2.5 µg/mL (≈ 7.45 µM) | –
Cc1cc(-c2ccccn2)nc2c(C(=O)NC(C)C(F)(F)F)cnn12 (stereo not drawn) [III-50] | 1.6 µg/mL (≈ 4.58 µM) | –
COc1cccc(-c2cc(C)n3ncc(C(=O)N[C@@H](C)C4CC4)c3n2)c1 [III-57] | 2.7 µg/mL (≈ 7.7 µM) | –
Cc1cc(N2CCOCC2)nc2c(C(=O)NC(C)C3CC3)cnn12 (stereo not drawn) [III-58] | 20.1 µg/mL (≈ 61 µM) | –
Cc1cc(N2CCOCC2)nc2c(C(=O)NC(C)(C)C3CC3)cnn12 [III-59] | 10.3 µg/mL (≈ 30 µM) | –
Cc1cc(N2CCCC(F)(F)C2)nc2c(C(=O)NC(C)C3CC3)cnn12 (stereo not drawn) [III-61] | 5.5 µg/mL (≈ 15.1 µM) | –
Cc1cc(-c2cccc(Cl)n2)nc2c(C(=O)NC(C)(C)C3CC3)cnn12 [III-62] | 1.2 µg/mL (≈ 3.24 µM) | –
C#CC(C)(C)NC(=O)c1cnn2c(C)cc(-c3cccc(Cl)n3)nc12 [III-63] | 0.2 µg/mL (≈ 0.565 µM) | –
Cc1cc(-c2cccc(Cl)c2)nc2c(C(=O)NC(C)C(F)(F)F)cnn12 (stereo not drawn) [III-64] | 6.2 µg/mL (≈ 16.2 µM) | –
Cc1cc(N2CCCC(F)(F)C2)nc2c(C(=O)NC(C3CC3)C(F)(F)F)cnn12 (stereo not drawn) [III-66] | 0.3 µg/mL (≈ 0.719 µM) | –
Cc1cc(N2CCC(F)(F)C2)nc2c(C(=O)NC(C3CC3)C(F)(F)F)cnn12 (stereo not drawn) [III-67] | 1.9 µg/mL (≈ 4.71 µM) | –
C#CC(C)(C)NC(=O)c1cnn2c(C)cc(-c3cccc(OC)c3)nc12 [III-69] | 0.5 µg/mL (≈ 1.44 µM) | –
Cc1cc(-c2cccc(C#N)c2)nc2c(C(=O)NC(C)(C)C3CC3)cnn12 [III-71] | 0.5 µg/mL (≈ 1.39 µM) | –
COCc1cc(-c2cccc(F)c2)nc2c(C(=O)NC(C)(C)C3CC3)cnn12 [III-74] | 0.8 µg/mL (≈ 2.09 µM) | –
C#CC(C)(C)NC(=O)c1cnn2c(C)cc(-c3cccc(F)c3)nc12 [III-75] | 0.6 µg/mL (≈ 1.78 µM) | –

SMILES | solubility | Compound Solubility in Water
CCOc1cccc(-c2cc(C)n3ncc(C(=O)NC(C)C(F)(F)F)c3n2)c1 (stereo not drawn) [III-76] | 0.2 µg/mL (≈ 0.51 µM) | –
Cc1cc(-c2cccc(OC3CC3)c2)nc2c(C(=O)NC(C)C(F)(F)F)cnn12 (stereo not drawn) [III-77] | 0.3 µg/mL (≈ 0.742 µM) | –
COCc1cc(-c2cccc(OC)c2)nc2c(C(=O)NC(C)(C)C3CC3)cnn12 [III-79] | 0.5 µg/mL (≈ 1.27 µM) | –
Cc1cc(-c2cccc(F)c2)nc2c(C(=O)NC(C)(C)C(F)(F)F)cnn12 [III-80] | 0.2 µg/mL (≈ 0.526 µM) | –
C#CC(C)(C)NC(=O)c1cnn2c(C)cc(-c3cccc(OC4CC4)c3)nc12 [III-82] | 1.5 µg/mL (≈ 4.01 µM) | –
Cc1cc(-c2cccnc2F)nc2c(C(=O)NC(C3CC3)C(F)(F)F)cnn12 (stereo not drawn) [III-85] | 1 µg/mL (≈ 2.54 µM) | –
Cc1cc(-c2ccc(F)cc2)nc2c(C(=O)N[C@H](C)C3CC3)cnn12 [III-86] | 2.8 µg/mL (≈ 8.27 µM) | –
Cc1cc(-c2cccnc2)nc2c(C(=O)N[C@H](C3CC3)C(F)(F)F)cnn12 [III-88] | 14.8 µg/mL (≈ 39.4 µM) | –
Cc1cc(-c2cccnc2)nc2c(C(=O)N[C@@H](C3CC3)C(F)(F)F)cnn12 [III-89] | 10.4 µg/mL (≈ 27.7 µM) | –
COc1cccc(-c2cc(C)n3ncc(C(=O)N[C@@H](C)C(F)(F)F)c3n2)c1 [III-91] | 1.7 µg/mL (≈ 4.49 µM) | –
Cc1cc(N2CCCC(F)(F)C2)nc2c(C(=O)N[C@@H](C3CC3)C(F)(F)F)cnn12 [III-95] | 1 µg/mL (≈ 2.4 µM) | –
C#CC(NC(=O)c1cnn2c(C)cc(-c3cccc(OC)c3)nc12)C(F)(F)F (stereo not drawn) [III-96] | 2 µg/mL (≈ 5.15 µM) | –
Cc1cc(-c2cccc(Oc3ncccn3)c2)nc2c(C(=O)NC(C3CC3)C(F)(F)F)cnn12 (stereo not drawn) [III-103] | 0.8 µg/mL (≈ 1.71 µM) | –
Cc1cc(-c2cccc3ncoc23)nc2c(C(=O)NC(C3CC3)C(F)(F)F)cnn12 (stereo not drawn) [III-104] | 0.02 µg/mL (≈ 0.0481 µM) | –
Cc1cc(-c2cccc3ocnc23)nc2c(C(=O)NC(C3CC3)C(F)(F)F)cnn12 (stereo not drawn) [III-106] | 0.1 µg/mL (≈ 0.241 µM) | –
Cc1cc(-c2ccc3ocnc3c2)nc2c(C(=O)N[C@H](C3CC3)C(F)(F)F)cnn12 [III-109] | 0.5 µg/mL (≈ 1.2 µM) | –
Cc1cc(-c2cccc(F)c2)nc2c(C(=O)NC(C3CC3)C(F)(F)F)cnn12 (stereo not drawn) [III-111] | 0.07 µg/mL (≈ 0.178 µM) | –
Cc1cc(-c2cccnc2F)nc2c(C(=O)N[C@H](C3CC3)C(F)(F)F)cnn12 [III-114] | 2.1 µg/mL (≈ 5.34 µM) | –
Cc1cc(-c2cccnc2F)nc2c(C(=O)N[C@@H](C3CC3)C(F)(F)F)cnn12 [III-115] | 1.9 µg/mL (≈ 4.83 µM) | –
Cc1cc(-c2ccc(Cl)nc2)nc2c(C(=O)NC(C3CC3)C(F)(F)F)cnn12 (stereo not drawn) [III-116] | 1 µg/mL (≈ 2.44 µM) | –

More lines, now with the values ahead:

solubility | Compound Solubility in Water | SMILES
2.1 µg/mL (≈ 5.36 µM) | – | Cc1cc(-c2cccnc2)nc2c(C(=O)N[C@H](C)c3ccc(Cl)cc3)cnn12 [III-37]
18.2 µg/mL (≈ 44.7 µM) | – | Cc1cc(-c2cccnc2)nc2c(C(=O)N[C@H]3CC[C@H](OC(C)(C)C)CC3)cnn12 [III-38]
20 µg/mL (≈ 50.8 µM) | – | CCCO[C@H]1CC[C@H](NC(=O)c2cnn3c(C)cc(-c4cccnc4)nc23)CC1 [III-40]
1.9 µg/mL (≈ 5.03 µM) | – | Cc1cc(-c2cccnc2)nc2c(C(=O)NC(C(C)C)C(F)(F)F)cnn12 (stereo not drawn) [III-41]
15.1 µg/mL (≈ 41.6 µM) | – | CCC(NC(=O)c1cnn2c(C)cc(-c3cccnc3)nc12)C(F)(F)F (stereo not drawn) [III-42]
10.2 µg/mL (≈ 30.7 µM) | – | Cc1cc(Cl)nc2c(C(=O)NC(C3CC3)C(F)(F)F)cnn12 (stereo not drawn) [III-45]
14.1 µg/mL (≈ 38.8 µM) | – | CCc1cc(-c2ccccn2)n2ncc(C(=O)NC(C)C(F)(F)F)c2n1 (stereo not drawn) [III-51]
2.4 µg/mL (≈ 6.61 µM) | – | CCc1cc(-c2ccccn2)nc2c(C(=O)NC(C)C(F)(F)F)cnn12 (stereo not drawn) [III-52]
1.7 µg/mL (≈ 4.49 µM) | – | COc1cccc(-c2cc(C)n3ncc(C(=O)NC(C)C(F)(F)F)c3n2)c1 (stereo not drawn) [III-55]
1.1 µg/mL (≈ 3.25 µM) | – | Cc1cc(-c2cccc(F)c2)nc2c(C(=O)N[C@@H](C)C3CC3)cnn12 [III-56]
4.4 µg/mL (≈ 12.1 µM) | – | Cc1cc(N2CCC(F)(F)CC2)nc2c(C(=O)NC(C)C3CC3)cnn12 (stereo not drawn) [III-60]
0.9 µg/mL (≈ 2.54 µM) | – | Cc1cc(-c2cccc(Cl)c2)nc2c(C(=O)N[C@@H](C)C3CC3)cnn12 [III-65]
11.9 µg/mL (≈ 36.5 µM) | – | Cc1cc(C(F)(F)F)nc2c(C(=O)NC(C)(C)C3CC3)cnn12 [III-68]
2.1 µg/mL (≈ 6.08 µM) | – | Cc1cc(-c2cccc(C#N)c2)nc2c(C(=O)N[C@@H](C)C3CC3)cnn12 [III-70]
0.1 µg/mL (≈ 0.25 µM) | – | Cc1cc(-c2cccc(C#N)c2)nc2c(C(=O)NC(C3CC3)C(F)(F)F)cnn12 (stereo not drawn) [III-72]
0.4 µg/mL (≈ 0.958 µM) | – | Cc1cc(-c2cccc(C(N)=O)c2)nc2c(C(=O)NC(C3CC3)C(F)(F)F)cnn12 (stereo not drawn) [III-73]
5.6 µg/mL (≈ 17.2 µM) | – | Cc1cc(NC2CC2)nc2c(C(=O)NC(C3CC3)C3CC3)cnn12 [III-78]
1.5 µg/mL (≈ 4.25 µM) | – | C#CC(C)(C)NC(=O)c1cnn2c(C)cc(-c3cccc(Cl)c3)nc12 [III-81]
0.3 µg/mL (≈ 0.722 µM) | – | Cc1cc(-c2ccc3ocnc3c2)nc2c(C(=O)NC(C3CC3)C(F)(F)F)cnn12 (stereo not drawn) [III-83]

solubility | Compound Solubility in Water | SMILES
0.8 µg/mL (≈ 2.03 µM) | – | Cc1cc(-c2ccc(F)nc2)nc2c(C(=O)NC(C3CC3)C(F)(F)F)cnn12 (stereo not drawn) [III-84]
2 µg/mL (≈ 5.29 µM) | – | COc1cccc(-c2cc(C)n3ncc(C(=O)N[C@H](C)C(F)(F)F)c3n2)c1 [III-90]
0.2 µg/mL (≈ 0.591 µM) | – | Cc1cc(-c2cccc(F)c2)nc2c(C(=O)N[C@H](C)C3CC3)cnn12 [III-92]
0.6 µg/mL (≈ 1.44 µM) | – | Cc1cc(N2CCCC(F)(F)C2)nc2c(C(=O)N[C@H](C3CC3)C(F)(F)F)cnn12 [III-94]
0.2 µg/mL (≈ 0.505 µM) | – | COc1ccc(F)c(-c2cc(C)n3ncc(C(=O)N[C@H](C)C(F)(F)F)c3n2)c1 [III-97]
0.3 µg/mL (≈ 0.757 µM) | – | COc1ccc(F)c(-c2cc(C)n3ncc(C(=O)N[C@@H](C)C(F)(F)F)c3n2)c1 [III-98]
0.2 µg/mL (≈ 0.509 µM) | – | C#CC(NC(=O)c1cnn2c(C)cc(-c3cccc(Cl)c3)nc12)C(F)(F)F (stereo not drawn) [III-99]
0.9 µg/mL (≈ 2.36 µM) | – | Cc1cc(-c2ccns2)nc2c(C(=O)N[C@H](C3CC3)C(F)(F)F)cnn12 [III-100]
1.3 µg/mL (≈ 3.41 µM) | – | Cc1cc(-c2ccns2)nc2c(C(=O)N[C@@H](C3CC3)C(F)(F)F)cnn12 [III-101]
0.4 µg/mL (≈ 0.908 µM) | – | Cc1cc(-c2cccc(-c3ncc[nH]3)c2)nc2c(C(=O)NC(C3CC3)C(F)(F)F)cnn12 (stereo not drawn) [III-102]
0.1 µg/mL (≈ 0.251 µM) | – | Cc1cc(-n2ccc(Cl)n2)nc2c(C(=O)NC(C3CC3)C(F)(F)F)cnn12 (stereo not drawn) [III-107]
– | 0.3 µg/mL | Cc1cc(-c2ccc3ocnc3c2)nc2c(C(=O)NC(C3CC3)C(F)(F)F)cnn12 (stereo not drawn) [III-108]
0.4 µg/mL (≈ 0.963 µM) | – | Cc1cc(-c2ccc3ocnc3c2)nc2c(C(=O)N[C@@H](C3CC3)C(F)(F)F)cnn12 [III-110]
– | 0.8 µg/mL | Cc1cc(-c2ccc(F)nc2)nc2c(C(=O)NC(C3CC3)C(F)(F)F)cnn12 (stereo not drawn) [III-112]
– | 1.0 µg/mL | Cc1cc(-c2cccnc2F)nc2c(C(=O)NC(C3CC3)C(F)(F)F)cnn12 (stereo not drawn) [III-113]
0.8 µg/mL (≈ 1.95 µM) | – | Cc1cc(-c2ccc(Cl)nc2)nc2c(C(=O)N[C@H](C3CC3)C(F)(F)F)cnn12 [III-117]
0.08 µg/mL (≈ 0.195 µM) | – | Cc1cc(-c2cncc(Cl)c2)nc2c(C(=O)NC(C3CC3)C(F)(F)F)cnn12 (stereo not drawn) [III-119]
0.7 µg/mL (≈ 1.71 µM) | – | Cc1cc(-c2cncc(Cl)c2)nc2c(C(=O)N[C@H](C3CC3)C(F)(F)F)cnn12 [III-120]
